In test [1] the target is T1, G12D-mutant human KRAS (amino acid residues 1-188) (Homo sapiens, UniProt P01116, G12D).
T1 construct: G12D or G12C-mutant human KRAS (amino acid residues 1-188) with FLAG tag; made in house; host or cells: E. coli
In words: KRAS Binding Disruption Assay (AlphaScreen; biotinylated KRpep-2d analogue or RAF1-RBD), G12D. Conditions: KRAS G12D; geometric mean; read-out: KRAS GMean IC50 (uM) MUTATION: G12D. Summed up: (§1)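 AlphaScreen readout: signal falls as compound displaces biotinylated KRpep-2d analogue or RAF1-RBD from mutant KRAS. Both partners at 5-20 nM, 1 h binding at 25° C, then 10 μg/mL Anti-Flag acceptor and streptavidin donor beads for 1 h. IC50 by nonlinear regression of % inhibition.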
A general note: In Alpha technology, singlet oxygen from a donor bead excites a nearby acceptor bead.

Test [2] concerns the target T2, G12C-mutant human KRAS (amino acid residues 1-188) (Homo sapiens, UniProt P01116, G12C).
T2 construct: G12D or G12C-mutant human KRAS (amino acid residues 1-188) with FLAG tag; made in house; host or cells: E. coli
In words: KRAS Binding Disruption Assay (AlphaScreen; biotinylated KRpep-2d analogue or RAF1-RBD), G12C. Conditions: geometric mean, read-out: KRAS GMean IC50 (uM) MUTATION: G12C. The method, boiled down: as §1

T1 sequence (P01116 1-188 isoform P01116-2 G12D): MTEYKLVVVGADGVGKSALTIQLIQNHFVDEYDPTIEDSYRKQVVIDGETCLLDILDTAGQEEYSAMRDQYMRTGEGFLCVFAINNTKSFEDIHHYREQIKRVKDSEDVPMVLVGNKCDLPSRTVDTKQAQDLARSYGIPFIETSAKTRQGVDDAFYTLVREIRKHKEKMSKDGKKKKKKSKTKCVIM
T2 sequence (P01116 1-188 isoform P01116-2 G12C): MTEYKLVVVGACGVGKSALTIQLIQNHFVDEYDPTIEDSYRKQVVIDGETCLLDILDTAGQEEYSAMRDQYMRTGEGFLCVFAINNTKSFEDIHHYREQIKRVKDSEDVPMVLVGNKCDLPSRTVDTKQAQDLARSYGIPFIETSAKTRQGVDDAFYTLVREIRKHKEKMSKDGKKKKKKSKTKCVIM

A word on the IC50: it is the concentration at which inhibition is half-maximal. With `CN(C)C(C)(C)COc1nc(N2C[C@H]3CC[C@@H](C2)N3)c2ccc(-c3cc(O)cc4ccccc34)c(F)c2n1` [P-0736, 4-(4-((1R,5S)-3,8-diazabicyclo[3.2.1]octan-3-yl)-2-(2-(dimethylamino)-2-methylpropoxy)-8-fluoroquinazolin-7-yl)naphthalen-2-ol], the IC50 in test [1] fell in the range of 0.0001 to 10 µM; in test [2], 10 to 100 µM.
For `Fc1cc2c(N3C[C@H]4CC[C@@H](C3)N4)nc(OCC34CCCN3CCC4)nc2c(F)c1-c1c[nH]c2cccc(C(F)(F)F)c12` [P-0737, 4-((1R,5S)-3,8-diazabicyclo[3.2.1]octan-3-yl)-6,8-difluoro-2-((tetrahydro-1H-pyrrolizin-7a(5H)-yl)methoxy)-7-(4-(trifluoromethyl)-1H-indol-3-yl)quinazoline], the IC50 in test [1] and in test [2] was 0.0001 to 10 µM throughout.
Consider `Oc1cc(-c2ccc3c(N4C[C@H]5CC[C@@H](C4)N5)nc(OCC4CCC(F)(F)C4)nc3c2F)c2ccccc2c1` (stereo partly drawn) [P-0738, 4-(4-((1R,5S)-3,8-diazabicyclo[3.2.1]octan-3-yl)-2-((3,3-difluorocyclopentyl)methoxy)-8-fluoroquinazolin-7-yl)naphthalen-2-ol], for which the IC50 in test [1] is 0.0001 to 10 µM; in test [2] it was 10 to 100 µM.
Taken in the same sequence, the figures for `Oc1cc(-c2ccc3c(N4C[C@H]5CC[C@@H](C4)N5)nc(OCC4CCCC4(F)F)nc3c2F)c2ccccc2c1` (stereo partly drawn) [P-0739, 4-(4-((1R,5S)-3,8-diazabicyclo[3.2.1]octan-3-yl)-2-((2,2-difluorocyclopentyl)methoxy)-8-fluoroquinazolin-7-yl)naphthalen-2-ol] were 0.0001 to 10 µM and 10 to 100 µM.
With `Oc1cc(-c2ccc3c(N4C[C@H]5CC[C@@H](C4)N5)nc(OCC4CC(F)(F)C4(F)F)nc3c2F)c2ccccc2c1` (stereo partly drawn) [P-0740, 4-(4-((1R,5S)-3,8-diazabicyclo[3.2.1]octan-3-yl)-8-fluoro-2-((2,2,3,3-tetrafluorocyclobutyl)methoxy)quinaz-olin-7-yl)naphthalen-2-ol], the IC50 in test [1] was in the range of 0.0001 to 10 µM; in test [2], 10 to 100 µM.
Taken in the same sequence, the figures for `Oc1cc(-c2ccc3c(N4C[C@H]5CC[C@@H](C4)N5)nc(OCC4CC4(F)F)nc3c2F)c2ccccc2c1` (stereo partly drawn) [P-0741, 4-(4-((1R,5S)-3,8-diazabicyclo[3.2.1]octan-3-yl)-2-((2,2-difluorocyclopropyl)methoxy)-8-fluoroquinazolin-7-yl)naphthalen-2-ol] were 0.0001 to 10 µM and 10 to 100 µM.
As for `CN1C(=O)CCC1COc1nc(N2C[C@H]3CC[C@@H](C2)N3)c2ccc(-c3cc(O)cc4ccccc34)c(F)c2n1` (stereo partly drawn) [P-0742, 5-(((4-((1R,5S)-3,8-diazabicyclo[3.2.1]octan-3-yl)-8-fluoro-7-(3-hydroxynaphthalen-1-yl)quinazolin-2-yl)oxy)methyl)-1-methylpyrrolidin-2-one], the half-inhibitory concentration (IC50) in test [1] lay within 0.0001 to 10 µM; in test [2], 10 to 100 µM.
Taken in the same sequence, the figures for `O=C(O)CCOc1nc(N2C[C@H]3CC[C@@H](C2)N3)c2ccc(-c3cc(O)cc4ccccc34)c(F)c2n1` [P-0743, 3-((4-((1R,5S)-3,8-diazabicyclo[3.2.1]octan-3-yl)-8-fluoro-7-(3-hydroxynaphthalen-1-yl)quinazolin-2-yl)oxy)propanoic acid] were 0.0001 to 10 µM and 10 to 100 µM.
Taken in the same sequence, the figures for `CC(C)(C)OC(=O)COc1nc(N2C[C@H]3CC[C@@H](C2)N3)c2ccc(-c3cc(O)cc4ccccc34)c(F)c2n1` [P-0744, tert-butyl 2-((4-((1R,5S)-3,8-diazabicyclo[3.2.1]octan-3-yl)-8-fluoro-7-(3-hydroxynaphthalen-1-yl)quinazolin-2-yl)oxy)acetate] were 0.0001 to 10 µM and 10 to 100 µM.
As for `O=C(O)COc1nc(N2C[C@H]3CC[C@@H](C2)N3)c2ccc(-c3cc(O)cc4ccccc34)c(F)c2n1` [P-0745, 2-((4-((1R,5S)-3,8-diazabicyclo[3.2.1]octan-3-yl)-8-fluoro-7-(3-hydroxynaphthalen-1-yl)quinazolin-2-yl)oxy)acetic acid], the values for the IC50 in test [1] and in test [2] were 0.0001 to 10 µM and 10 to 100 µM, respectively.
Taken in the same sequence, the figures for `Fc1cc2c(N3C[C@H]4CC[C@@H](C3)N4)nc(OCC34CCCN3CCC4)nc2c(F)c1-c1c[nH]c2c(F)ccc(F)c12` [P-0746, 4-((1R,5S)-3,8-diazabicyclo[3.2.1]octan-3-yl)-7-(4,7-difluoro-1H-indol-3-yl)-6,8-difluoro-2-((tetrahydro-1H-pyrrolizin-7a(5H)-yl)methoxy)quinazoline] were 0.0001 to 10 µM and 10 to 100 µM.
As to `Fc1cc(F)c2[nH]cc(-c3c(F)cc4c(N5C[C@H]6CC[C@@H](C5)N6)nc(OCC56CCCN5CCC6)nc4c3F)c2c1` [P-0747, 4-((1R,5S)-3,8-diazabicyclo[3.2.1]octan-3-yl)-7-(5,7-difluoro-1H-indol-3-yl)-6,8-difluoro-2-((tetrahydro-1H-pyrrolizin-7a(5H)-yl)methoxy)quinazoline], the figures for the half-maximal inhibitory concentration (IC50) in test [1] and in test [2] were 0.0001 to 10 µM and 10 to 100 µM, respectively.
Taken in the same sequence, the figures for `CC(F)(F)COc1nc(N2C[C@H]3CC[C@@H](C2)N3)c2ccc(-c3cc(O)cc4ccccc34)c(F)c2n1` [P-0748, 4-(4-((1R,5S)-3,8-diazabicyclo[3.2.1]octan-3-yl)-2-(2,2-difluoropropoxy)-8-fluoroquinazolin-7-yl)naphthalen-2-ol] were 0.0001 to 10 µM and 10 to 100 µM.
The matching figures for `Oc1cc(-c2ccc3c(N4C[C@H]5CC[C@@H](C4)N5)nc(OCC(F)F)nc3c2F)c2ccccc2c1` [P-0749, 4-(4-((1R,5S)-3,8-diazabicyclo[3.2.1]octan-3-yl)-2-(2,2-difluoroethoxy)-8-fluoroquinazolin-7-yl)naphthalen-2-ol]: 0.0001 to 10 µM and 10 to 100 µM.
The matching figures for `Oc1cc(-c2ccc3c(N4C[C@H]5CC[C@@H](C4)N5)nc(OCC4CCC4)nc3c2F)c2ccccc2c1` [P-0750, 4-(4-((1R,5S)-3,8-diazabicyclo[3.2.1]octan-3-yl)-2-(cyclobutylmethoxy)-8-fluoroquinazolin-7-yl)naphthalen-2-ol]: 0.0001 to 10 µM and 10 to 100 µM.
In the case of `N#CC1CC(COc2nc(N3C[C@H]4CC[C@@H](C3)N4)c3ccc(-c4cc(O)cc5ccccc45)c(F)c3n2)C1` (stereo partly drawn) [P-0751, 3-(((4-((1R,5S)-3,8-diazabicyclo[3.2.1]octan-3-yl)-8-fluoro-7-(3-hydroxynaphthalen-1-yl)quinazolin-2-yl)oxy)methyl)cyclobutane-1-carbonitrile], the 50% inhibitory concentration (IC50) in test [1] lay within 0.0001 to 10 µM; in test [2] it was 10 to 100 µM.
Turning to `Oc1cc(-c2ccc3c(N4C[C@H]5CC[C@@H](C4)N5)nc(OCC4CCC(F)(F)CC4)nc3c2F)c2ccccc2c1` [P-0752, 4-(4-((1R,5S)-3,8-diazabicyclo[3.2.1]octan-3-yl)-2-((4,4-difluorocyclohexyl)methoxy)-8-fluoroquinazolin-7-yl)naphthalen-2-ol], the concentration for half-maximal inhibition (IC50) in test [1] was 0.0001 to 10 µM; in test [2] it was 10 to 100 µM.
The matching figures for `CN(C)CCOc1nc(N2C[C@H]3CC[C@@H](C2)N3)c2ccc(-c3cc(O)cc4ccccc34)c(F)c2n1` [P-0753, 4-(4-((1R,5S)-3,8-diazabicyclo[3.2.1]octan-3-yl)-2-(2-(dimethylamino)ethoxy)-8-fluoroquinazolin-7-yl)naphthalen-2-ol]: 0.0001 to 10 µM and 0.0001 to 10 µM.
The matching figures for `CNCCc1nc(N2C[C@H]3CC[C@@H](C2)N3)c2ccc(-c3cc(O)cc4ccccc34)c(F)c2n1` [P-0754, 4-(4-((1R,5S)-3,8-diazabicyclo[3.2.1]octan-3-yl)-8-fluoro-2-(2-(methylamino)ethyl)quinazolin-7-yl)naphthalen-2-ol]: 0.0001 to 10 µM and 10 to 100 µM.
The matching figures for `CC(CCBr)Oc1nc(N2C[C@H]3CC[C@@H](C2)N3)c2ccc(-c3cc(O)cc4ccccc34)c(F)c2n1` (stereo partly drawn) [P-0755, 4-(4-((1R,5S)-3,8-diazabicyclo[3.2.1]octan-3-yl)-2-((4-bromobutan-2-yl)oxy)-8-fluoroquinazolin-7-yl)naphthalen-2-ol]: 0.0001 to 10 µM and 10 to 100 µM.
For the molecule `CN1CCC[C@H]1COc1nc(N2C[C@H]3CC[C@@H](C2)N3)c2cc(F)c(-c3c[nH]c4ccc(Cl)nc34)c(F)c2n1` [P-0756, 4-((1R,5S)-3,8-diazabicyclo[3.2.1]octan-3-yl)-7-(5-chloro-1H-pyrrolo[3,2-b]pyridin-3-yl)-6,8-difluoro-2-(((S)-1-methylpyrrolidin-2-yl)methoxy)quinazoline], the IC50 in test [1] lay within 0.0001 to 10 µM; in test [2], 100 to 1000 µM.
Taken in the same sequence, the figures for `CN1CCC[C@H]1COc1nc(N2C[C@H]3CC[C@@H](C2)N3)c2cc(F)c(-c3c[nH]c4ccc(C(F)(F)F)cc34)c(F)c2n1` [P-0757, 4-((1R,5S)-3,8-diazabicyclo[3.2.1]octan-3-yl)-6,8-difluoro-2-(((S)-1-methylpyrrolidin-2-yl)methoxy)-7-(5-(trifluoromethyl)-1H-indol-3-yl)quinazoline] were 0.0001 to 10 µM and 100 to 1000 µM.
The matching figures for `Cc1ccc2[nH]cc(-c3c(F)cc4c(N5C[C@H]6CC[C@@H](C5)N6)nc(OC[C@@H]5CCCN5C)nc4c3F)c2c1` [P-0758, 4-((1R,5S)-3,8-diazabicyclo[3.2.1]octan-3-yl)-6,8-difluoro-7-(5-methyl-1H-indol-3-yl)-2-(((S)-1-methylpyrrolidin-2-yl)methoxy)quinazoline]: 0.0001 to 10 µM and 100 to 1000 µM.
The matching figures for `CN1CCC[C@H]1COc1nc(N2C[C@H]3CC[C@@H](C2)N3)c2cc(F)c(-c3c[nH]c4cc(F)ccc34)c(F)c2n1` [P-0759, 4-((1R,5S)-3,8-diazabicyclo[3.2.1]octan-3-yl)-6,8-difluoro-7-(6-fluoro-1H-indol-3-yl)-2-(((S)-1-methylpyrrolidin-2-yl)methoxy)quinazoline]: 0.0001 to 10 µM and 10 to 100 µM.

For the origin of these results see patent US20230081426A1, “COMPOUNDS AND METHODS FOR KRAS MODULATION AND INDICATIONS THEREFOR” (Plexxikon Inc., priority 2020, published 2023).
